Reference: the supplement of paper PMC10307832

What was measured:
Experiment in all cases: relative viability (nuclei count vs DMSO), 5 days (fraction); higher = more cells survive
AT-7519 + Bortezomib = compound: O=C(NC1CCNCC1)c1n[nH]cc1NC(=O)c1c(Cl)cccc1Cl [AT-7519] + CC(C)C[C@H](NC(=O)[C@H](Cc1ccccc1)NC(=O)c1cnccn1)B(O)O [Bortezomib] (partner 0.002 µM)
How it was run: (§1)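 Relative viability is defined as nuclei in treated wells over nuclei in vehicle wells. Duplicate plates were run and medians reported. Lung cancer cell lines in 1536-well plates were dosed by pin tool one day after seeding, with one drug or with a fixed anchor-drug dose plus five library-drug doses (not always all listed) in √10 steps, and nuclei were counted after 5 days.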

[1] = compound: C1=CC2=C(C=C(C(=C2N=C1)O)N=NC3=CC4=C(C=C3)C=C(C=C4)S(=O)(=O)O)S(=O)(=O)O + C[C@@H](Oc1cc(-c2cnn(C3CCNCC3)c2)cnc1N)c1c(Cl)ccc(F)c1Cl [Crizotinib] (partner 1 µM)
How it was run: as §1

AT-7519 + Phenformin = compound: O=C(NC1CCNCC1)c1n[nH]cc1NC(=O)c1c(Cl)cccc1Cl [AT-7519] + N=C(N)NC(=N)NCCc1ccccc1 [Phenformin] (partner 250 µM)
How it was run: as §1

[2] = compound: C1=CC2=C(C=C(C(=C2N=C1)O)N=NC3=CC4=C(C=C3)C=C(C=C4)S(=O)(=O)O)S(=O)(=O)O + CS(=O)(=O)N1CCN(Cc2cc3nc(-c4cccc5[nH]ncc45)nc(N4CCOCC4)c3s2)CC1 [Pictilisib] (partner 1 µM)
How it was run: as §1

UMC-11 was tested, and the relative viability (AT-7519 + Bortezomib; first compound 0.01 µM) was 1.03, the relative viability (AT-7519 + Bortezomib; first compound 0.03162 µM) was 0.667 and the relative viability (AT-7519 + Bortezomib; first compound 0.3162 µM) was 0.427. For the same cell line, the relative viability (AT-7519 + Bortezomib; first compound 1 µM) was 0.359, the relative viability ([1]; first compound 0.08 µM) was 0.818 and the relative viability ([1]; first compound 0.253 µM) was 0.584. The relative viability ([1]; first compound 0.8 µM) was 0.491, the relative viability ([1]; first compound 2.53 µM) was 0.693 and the relative viability ([1]; first compound 8 µM) was 0.717. For the same cell line, the relative viability (AT-7519 + Phenformin; first compound 0.01 µM) was 0.319, the relative viability (AT-7519 + Phenformin; first compound 0.03162 µM) was 0.339 and the relative viability (AT-7519 + Phenformin; first compound 0.3162 µM) was 0.308. The relative viability (AT-7519 + Phenformin; first compound 1 µM) was 0.237, the relative viability ([2]; first compound 0.08 µM) was 1.05 and the relative viability ([2]; first compound 0.253 µM) was 0.762. For the same cell line, the relative viability ([2]; first compound 0.8 µM) was 0.761, the relative viability ([2]; first compound 2.53 µM) was 0.908 and the relative viability ([2]; first compound 8 µM) was 0.833.
